The source of these data is ChEMBL document CHEMBL5260828, “Amphiphilic glycoconjugates as potential anti-cancer chemotherapeutics” (Eur J Med Chem, 2018).

In assay [1] the test system is NCI-H292. Kind of assay: Cytotoxicity against human NCI-H292 cells assessed as reduction in cell viability incubated for 4 days by WST-1 assay. It is filed as functional, cell-based. The conditions noted are these: NCI-H292, 96 h.
Assay [2] is described as follows: Induction of apoptosis in rat Glial cell transformed with adenovirus 12 E1A incubated for 24 hrs by /Hoechst […] staining based flourescence microscopy. The class given is functional.
The test system of a further assay is HCC 2998. The assay is described as follows: Growth inhibition of human HCC 2998 cells by sulforhodamine B assay. The class given is functional.
The next assay relates to KM12. Kind of assay: Growth inhibition of human KM12 cells by sulforhodamine B assay. It is filed as functional.
For another assay, the system named is SNB-78. Kind of assay: Growth inhibition of human SNB-78 cells by sulforhodamine B assay. The class given is functional.
Assay [3] can be described thus: Growth inhibition of human HBC5 cells by sulforhodamine B assay. The class given is functional.
The nature of assay [4]: Growth inhibition of human HBC4 cells by sulforhodamine B assay. It is filed as functional.
The test system of a further assay is ACHN. The assay is described as follows: Growth inhibition of human ACHN cells by sulforhodamine B assay. The class given is functional.
Another assay concerns MKN-28. The assay is described as follows: Growth inhibition of human MKN-28 cells by sulforhodamine B assay. It is filed as functional.
The subject of another assay is SF-295. Kind of assay: Growth inhibition of human SF-295 cells by sulforhodamine B assay. It is filed as functional.
The next assay has as its system NCI-H460. The assay is described as follows: Growth inhibition of human NCI-H460 cells by sulforhodamine B assay. It is filed as functional.
A further assay has as its system SF-539. The assay is described as follows: Growth inhibition of human SF-539 cells by sulforhodamine B assay. It is filed as functional.
In another assay the test system is HCT-116. Kind of assay: Growth inhibition of human HCT-116 cells by sulforhodamine B assay. The class given is functional.
Another assay has as its system SNB-75. Kind of assay: Growth inhibition of human SNB-75 cells by sulforhodamine B assay. It is filed as functional.
The next assay concerns MKN-74. The assay is described as follows: Growth inhibition of human MKN-74 cells by sulforhodamine B assay. The class given is functional.
The subject of a further assay is NCI-H522. Kind of assay: Growth inhibition of human NCI-H522 cells by sulforhodamine B assay. The class given is functional.
Another assay relates to PC-3. The assay is described as follows: Growth inhibition of human PC-3 cells by sulforhodamine B assay. The class given is functional.
Another assay deals with SF-268. Kind of assay: Growth inhibition of human SF-268 cells by sulforhodamine B assay. The class given is functional.
For the next assay, the system named is RXF 631. The assay is described as follows: Growth inhibition of human RXF 631 cells by sulforhodamine B assay. It is filed as functional.
The subject of the next assay is OVCAR-5. Kind of assay: Growth inhibition of human OVCAR-5 cells by sulforhodamine B assay. It is filed as functional.
In assay [5] the test system is MCF7. The assay is described as follows: Growth inhibition of human MCF7 cells by sulforhodamine B assay. The class given is functional.
The test system of another assay is NCI-H23. Kind of assay: Growth inhibition of human NCI-H23 cells by sulforhodamine B assay. The class given is functional.
The test system of the next assay is LOX IMVI. Kind of assay: Growth inhibition of human LOX IMVI cells by sulforhodamine B assay. The class given is functional.
The next assay concerns OVCAR-4. The assay is described as follows: Growth inhibition of human OVCAR-4 cells by sulforhodamine B assay. It is filed as functional.
The next assay concerns U-251. The assay is described as follows: Growth inhibition of human U-251 cells by sulforhodamine B assay. It is filed as functional.
Assay [6] is described as follows: Growth inhibition of human […] cells by sulforhodamine B assay. The class given is functional.
The test system of another assay is HT-29. Kind of assay: Growth inhibition of human HT-29 cells by sulforhodamine B assay. The class given is functional.
The subject of a further assay is MKN-7. Kind of assay: Growth inhibition of human MKN-7 cells by sulforhodamine B assay. The class given is functional.
The subject of another assay is DMS-273. Kind of assay: Growth inhibition of human DMS-273 cells by sulforhodamine B assay. It is filed as functional.
Another assay concerns SK-OV-3. The assay is described as follows: Growth inhibition of human SK-OV-3 cells by sulforhodamine B assay. The class given is functional.
Another assay concerns OVCAR-3. The assay is described as follows: Growth inhibition of human OVCAR-3 cells by sulforhodamine B assay. It is filed as functional.
The subject of another assay is OVCAR-8. Kind of assay: Growth inhibition of human OVCAR-8 cells by sulforhodamine B assay. The class given is functional.
A further assay deals with St-4. The assay is described as follows: Growth inhibition of human St-4 cells by sulforhodamine B assay. It is filed as functional.
The test system of a further assay is DU-145. Kind of assay: Growth inhibition of human DU-145 cells by sulforhodamine B assay. The class given is functional.
In another assay the test system is NCI-H226. The assay is described as follows: Growth inhibition of human NCI-H226 cells by sulforhodamine B assay. The class given is functional.
The nature of assay [7]: Growth inhibition of human BSY1 cells by sulforhodamine B assay. It is filed as functional. To be noted: BSY-1.
The test system of the next assay is HCT-15. Kind of assay: Growth inhibition of human HCT-15 cells by sulforhodamine B assay. The class given is functional.
The target in assay [8] is Sarcoplasmic/endoplasmic reticulum calcium ATPase 1 (Oryctolagus cuniculus, UniProt P04191). The assay is described as follows: Inhibition of SERCA1a in rabbit Sarcoplasmic reticulum assessed as inhibition constant in presence of [gamma-32P]ATP and calcium ionophore A23187 by coupled enzyme assay. The class given is subcellular.
Sarcoplasmic/endoplasmic reticulum calcium ATPase 1, sequence (P04191 whole entry): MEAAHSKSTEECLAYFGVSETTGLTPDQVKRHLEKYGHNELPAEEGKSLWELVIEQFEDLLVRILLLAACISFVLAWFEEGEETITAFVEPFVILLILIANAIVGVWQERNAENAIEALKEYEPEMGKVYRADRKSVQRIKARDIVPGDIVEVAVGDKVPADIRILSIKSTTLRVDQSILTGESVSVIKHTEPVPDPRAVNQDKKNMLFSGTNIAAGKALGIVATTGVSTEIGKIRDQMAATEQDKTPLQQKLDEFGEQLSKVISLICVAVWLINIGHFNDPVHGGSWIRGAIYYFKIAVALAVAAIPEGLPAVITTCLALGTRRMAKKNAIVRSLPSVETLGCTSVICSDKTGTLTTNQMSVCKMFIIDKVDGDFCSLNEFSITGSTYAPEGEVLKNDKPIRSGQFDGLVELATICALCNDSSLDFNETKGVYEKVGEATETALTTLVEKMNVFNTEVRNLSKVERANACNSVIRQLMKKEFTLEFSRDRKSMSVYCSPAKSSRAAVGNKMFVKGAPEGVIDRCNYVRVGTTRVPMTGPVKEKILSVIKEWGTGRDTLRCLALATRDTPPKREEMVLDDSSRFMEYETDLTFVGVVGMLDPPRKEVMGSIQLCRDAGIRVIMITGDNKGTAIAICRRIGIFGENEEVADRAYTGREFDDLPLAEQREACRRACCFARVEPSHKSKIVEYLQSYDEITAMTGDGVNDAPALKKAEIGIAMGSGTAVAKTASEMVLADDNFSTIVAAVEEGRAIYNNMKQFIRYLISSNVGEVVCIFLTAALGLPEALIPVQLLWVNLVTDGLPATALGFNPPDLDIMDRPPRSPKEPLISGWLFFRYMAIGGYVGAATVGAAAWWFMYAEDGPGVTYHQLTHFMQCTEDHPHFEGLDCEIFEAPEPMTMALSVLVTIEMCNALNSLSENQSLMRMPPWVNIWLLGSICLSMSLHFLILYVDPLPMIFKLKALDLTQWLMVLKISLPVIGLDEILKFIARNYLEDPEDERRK
A further assay deals with HeLa S3. The assay is described as follows: Cytotoxicity against human HeLa S3 cells assessed as cell growth inhibition. The class given is functional, cell-based.
The next assay concerns MKN-45. Kind of assay: Growth inhibition of human MKN-45 cells by sulforhodamine B assay. It is filed as functional.
For the next assay, the system named is A549. The assay is described as follows: Growth inhibition of human A549 cells by sulforhodamine B assay. It is filed as functional.
The test system of the next assay is MKN-1. The assay is described as follows: Growth inhibition of human MKN-1 cells by sulforhodamine B assay. The class given is functional.
The subject of assay [9] is MCF7. Kind of assay: Cytotoxicity against human MCF7 cells assessed as cell growth inhibition incubated for 144 hrs by MTT assay. To be noted: MCF7, 144 h. It is filed as functional, cell-based.
Assay [10] can be described thus: Cytotoxicity against mouse WEHI-231 cells assessed as cell growth inhibition incubated for 144 hrs by MTT assay. It is filed as functional, cell-based. The conditions noted are these: WEHI231, 144 h.
The next assay deals with Colon 26. Kind of assay: Cytotoxicity against mouse Colon 26 cells incubated for 3 days by MTT assay. The conditions noted are these: Colon 26, 72 h. The class given is functional, cell-based.
Another assay has as its system L1210. The assay is described as follows: Cytotoxicity against mouse L1210 cells incubated for 3 days by MTT assay. To be noted: L1210, 72 h. The class given is functional, cell-based.
Assay [11] has as its system NCI-H292. The assay is described as follows: Growth inhibition in human NCI-H292 cells incubated for 2 days by calcein-AM/pluronic F127 based fluorescence plate reader. It is filed as functional. The conditions noted are these: NCI-H292, 48 h, time 2 day.
Another assay relates to KB. The assay is described as follows: Cytotoxicity against human KB cells by MTT assay. The class given is functional, cell-based.
A further assay relates to K562. Kind of assay: Cytotoxicity against human K562 cells by MTT assay. It is filed as functional, cell-based.
A further assay relates to HeLa. Kind of assay: Cytotoxicity against human HeLa cells by MTT assay. It is filed as functional, cell-based.
Another assay concerns Jurkat. Kind of assay: Cytotoxicity against human Jurkat cells incubated for 18 hrs by MTS assay. The class given is functional.

In brackets after ≈: the same amount, converted by molar mass. A value given as a limit tells only on which side of the number the result lay.

Consider `COC[C@@H](C[C@H]1O[C@@](O)([C@H](O)[C@@H]2C[C@H](OC)[C@@H](O)CC/C=C(C)/C=C/[C@@H](O[C@@H]3O[C@@H](C)[C@H](OC)[C@@H](O)[C@@H]3O)[C@H](C)/C=C(C)/C=C(C)/C=C(\C)C(=O)O2)[C@H](C)[C@@H](O)[C@H]1C)O[C@H]1C[C@](C)(O)[C@@H](O[C@H]2C[C@@H](OC)[C@H](O)[C@@H](C)O2)[C@H](C)O1`, for which the EC50 in the assay with NCI-H292 [1] was under 50 nM. In addition, in [2], the IC50 came to 0.011 µg/mL (≈ 0.00974 µM).
Consider `C/C=C/C/C(C)=C\[C@H]1C/C=C/C=C/C[C@H](C)/C=C(\C)[C@@H](OC)C/C=C/[C@@H](O[C@@H]2O[C@H](CO)[C@@H](O)[C@H](OC)[C@H]2O)CC(=O)O1`, for which the 50% growth inhibitory concentration (GI50) (in the assay on HCC 2998; with KM12; in the assay on SNB-78; in [3]; in assay [4]; in the assay with ACHN) was 600 nM in each case. In addition, the GI50 in the assay on MKN-28, in the assay on SF-295, with NCI-H460, with SF-539, in the assay on HCT-116 and in the assay with SNB-75 was 600 nM throughout. Moreover, the GI50 in the assay on MKN-74, with NCI-H522, in the assay with PC-3, in the assay on SF-268, with RXF 631 and with OVCAR-5 was 600 nM throughout. In addition, the GI50 (in the assay with MCF7 [5]; in the assay with NCI-H23; in the assay on LOX IMVI; with OVCAR-4; with U-251; in assay [6]) was 600 nM throughout. Besides, the GI50 with HT-29, in the assay on MKN-7, with DMS-273, with SK-OV-3, with OVCAR-3 and with OVCAR-8 was 600 nM in each case. For the same compound, the concentration for 50% growth inhibition (GI50) (in the assay on St-4; in the assay on DU-145; in the assay with NCI-H226; in assay [7]; in the assay on HCT-15; in the assay with MKN-45) was 600 nM each time. In addition, the GI50 in the assay on A549 and in the assay with MKN-1 was 600 nM throughout. The Ki in assay [8] was determined as 19 nM. Further, the IC50 with HeLa S3 amounted to 0.1 µg/mL (≈ 0.165 µM).
In the case of `COC[C@@H](C[C@H]1O[C@@](O)([C@H](O)[C@@H]2C[C@H](OC)[C@@H](O)CCC/C=C(C)\C=C\C[C@@H](O[C@H]3O[C@@H](C)[C@H](OC)[C@@H](O)[C@@H]3O)[C@H](C)/C=C(C)/C=C(C)/C=C(\C)C(=O)O2)[C@H](C)[C@@H](O)[C@H]1C)O[C@H]1C[C@](C)(O)[C@@H](O[C@H]2C[C@@H](OC)[C@H](O)[C@@H](C)O2)[C@H](C)O1`, the IC50 in the assay with MCF7 [9] was determined as 30 nM; in assay [10] it was 20 nM.
On to `C/C=C(\C)[C@H](O)[C@H](C)/C=C(C)/C=C/C/C(C)=C/Cc1nc(OC)c(OC)c(OC2O[C@H](C)[C@H](O)[C@H](O)[C@@H]2O)c1C` (stereo partly specified), for which the IC50 in the assay with Colon 26 came out at 0.81 µg/mL (≈ 1.44 µM); with L1210, 7.91 µg/mL (≈ 14.1 µM).
Consider `COC[C@@H](C[C@H]1O[C@@](O)([C@H](O)[C@@H]2C[C@H](OC)CCC/C=C(C)/C=C/[C@@H](O[C@@H]3O[C@@H](C)[C@H](OC)[C@@H](O)[C@@H]3O)[C@H](C)/C=C(C)/C=C(C)/C=C(\C)C(=O)O2)[C@H](C)[C@@H](O)[C@H]1C)O[C@H]1C[C@](C)(O)[C@@H](O[C@H]2C[C@@H](OC)[C@H](O)[C@@H](C)O2)[C@H](C)O1`, for which the concentration for 50% growth inhibition (GI50) in the assay on NCI-H292 [11] is 7 nM.
For the compound `C/C=C(\C)[C@H](O)[C@H](C)/C=C(C)/C=C/C/C(C)=C/Cc1nc(OC)c(OC)c(OC2O[C@@H](C)[C@H](O)[C@@H](O)[C@H]2O)c1C` (stereo partly specified), the half-maximal inhibitory concentration (IC50) in the assay with KB was 3.8 µg/mL (≈ 6.76 µM); with K562 it was 4.6 µg/mL (≈ 8.19 µM); in the assay on HeLa it was 2.8 µg/mL (≈ 4.98 µM).
`CCCCCCCCCCCCn1cc(CO[C@@H]2OC[C@@H](O)[C@H](O)[C@H]2O)nn1` gave a CC50 in the assay on Jurkat of 26 µM. That is a double-digit micromolar value.
